Results taken from ChEMBL document CHEMBL6103628, “Structural Optimization of Covalent Inhibitors for Deubiquitinase ChlaDUB1 of Chlamydia trachomatis as Antibiotic Agents” (J Med Chem, 2025).
Values after ≈ are worked out from the molar mass of the structure shown. Active and inactive are the calls of the source. The rule behind the calls is not given here.

Tests used:
[1] = biological target: T1, Deubiquitinase and deneddylase Dub1 (Chlamydia trachomatis serovar L2 (strain ATCC VR-902B / DSM 19102 /434/Bu), UniProt B0B9A0); experiment: Inhibition of recombinant Chlamydia trachomatis DUB1 (130 to 401 residues) using Ub-Rh110Gly as fluorogenic substrate incubated for 60 mins by enzymatic analysis; settings: read-out: IC50
T1 sequence (B0B9A0 whole entry): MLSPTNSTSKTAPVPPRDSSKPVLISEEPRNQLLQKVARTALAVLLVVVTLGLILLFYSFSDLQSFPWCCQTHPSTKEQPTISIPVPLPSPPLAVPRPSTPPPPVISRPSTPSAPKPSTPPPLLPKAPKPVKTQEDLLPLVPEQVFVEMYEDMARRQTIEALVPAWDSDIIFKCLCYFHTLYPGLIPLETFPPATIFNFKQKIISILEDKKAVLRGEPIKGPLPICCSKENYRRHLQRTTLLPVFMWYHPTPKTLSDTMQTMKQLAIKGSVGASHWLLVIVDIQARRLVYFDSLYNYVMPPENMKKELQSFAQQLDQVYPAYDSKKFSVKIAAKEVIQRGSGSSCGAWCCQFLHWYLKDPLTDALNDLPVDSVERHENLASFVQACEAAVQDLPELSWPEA

[2] = biological target: T2, Deubiquitinase and deneddylase Dub1 (Chlamydia trachomatis serovar L2 (strain ATCC VR-902B / DSM 19102 /434/Bu)) (UniProt B0B9A0); experiment: Inhibition of recombinant Chlamydia trachomatis DUB1 (130 to 401 residues) using Ub-Rh110Gly as fluorogenic substrate at 100 to 500 uM incubated for 20 to 240 mins by enzymatic analysis relative to control; settings: dose 100-500 µM, time 20-240 min
T2 sequence (whole entry): T1 sequence (B0B9A0 whole entry)

[3] = biological target: T3, OTU domain-containing protein 3 (Homo sapiens) (UniProt Q5T2D3); experiment: Inhibition of human OTUD3 at 35 uM relative to control
T3 sequence (whole entry): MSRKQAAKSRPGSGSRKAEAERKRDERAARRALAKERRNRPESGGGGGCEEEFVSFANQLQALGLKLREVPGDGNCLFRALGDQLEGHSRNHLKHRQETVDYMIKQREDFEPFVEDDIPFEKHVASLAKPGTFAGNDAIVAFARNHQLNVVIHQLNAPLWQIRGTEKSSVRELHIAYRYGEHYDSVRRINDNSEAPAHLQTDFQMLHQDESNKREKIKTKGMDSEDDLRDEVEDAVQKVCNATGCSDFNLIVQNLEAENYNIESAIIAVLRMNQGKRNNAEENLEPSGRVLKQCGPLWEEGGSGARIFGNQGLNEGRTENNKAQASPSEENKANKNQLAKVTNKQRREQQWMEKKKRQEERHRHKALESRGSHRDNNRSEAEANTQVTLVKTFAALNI

[4] = biological target: T4, Ubiquitin carboxyl-terminal hydrolase isozyme L3 (Homo sapiens) (UniProt P15374); experiment: Inhibition of human UCHL3 at 35 uM relative to control
T4 sequence (whole entry): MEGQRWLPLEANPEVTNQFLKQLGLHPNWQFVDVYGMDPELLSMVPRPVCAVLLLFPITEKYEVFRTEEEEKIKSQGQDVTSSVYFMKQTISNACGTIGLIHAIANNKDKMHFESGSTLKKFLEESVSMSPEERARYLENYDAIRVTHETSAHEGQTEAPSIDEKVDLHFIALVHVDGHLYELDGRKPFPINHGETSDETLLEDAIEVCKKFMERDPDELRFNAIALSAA

[5] = biological target: Ubiquitin carboxyl-terminal hydrolase isozyme L1 (Homo sapiens) (UniProt P09936); experiment: Inhibition of human UCHL1 at 35 uM relative to control
[6] = biological target: T5, Deubiquitinase and deneddylase Dub2 (Chlamydia trachomatis, UniProt O84875); experiment: Inhibition of Chlamydia trachomatis DUB2 incubated for 60 mins
T5 sequence (O84875 whole entry): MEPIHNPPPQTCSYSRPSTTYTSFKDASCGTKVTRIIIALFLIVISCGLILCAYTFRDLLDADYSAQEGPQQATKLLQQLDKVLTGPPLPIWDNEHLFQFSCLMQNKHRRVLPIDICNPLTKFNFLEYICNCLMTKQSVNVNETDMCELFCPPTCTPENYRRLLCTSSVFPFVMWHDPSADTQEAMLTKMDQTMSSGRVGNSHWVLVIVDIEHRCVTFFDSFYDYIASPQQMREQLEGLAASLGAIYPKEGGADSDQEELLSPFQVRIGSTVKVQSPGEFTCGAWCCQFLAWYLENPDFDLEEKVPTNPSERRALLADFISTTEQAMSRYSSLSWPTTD

[7] = biological target: T6, Deubiquitinase and deneddylase Dub2 (Chlamydia trachomatis) (UniProt O84875); experiment: Inhibition of Chlamydia trachomatis DUB2 incubated for 60 mins relative to control
T6 sequence (whole entry): T5 sequence (O84875 whole entry)

Chlamydia trachomatis = experiment: Anti-chlamydial activity against Chlamydia trachomatis serovar L2 infected in human HEp-2 cells assessed as inhibition of chlamydial inclusion incubated for 16 hrs by Alexa488/DAPI staining based immunofluorescence assay; assay type: functional, organism-based; settings: serovar L2, HEp-2, 16 h
HEp-2 = experiment: Cytotoxicity against human HEp-2 cells assessed as reduction in cell viability at 4 to 256 ug/mL measured after 20 hrs by XTT assay; assay type: toxicity, cell-based; settings: hep-2, 20 h, dose 4-256 µg/ml
HEK293 = experiment: Cytotoxicity against HEK293 cells assessed as reduction in cell viability upto 64 ug/mL measured after 20 hrs by XTT assay; assay type: toxicity, cell-based; settings: human, hek293, 20 h, dose < 64 µg/ml
[8] = Cytotoxicity against HDFa cells assessed as reduction in cell viability at 16 ug/mL measured after 20 hrs by XTT assay; assay type: toxicity, cell-based; settings: human, dose 16 µg/ml
Staphylococcus aureus = experiment: Antimicrobial activity against methicillin- resistant Staphylococcus aureus JE2 upto 256 microg/ml incubated for 20 hrs by resazurin staining based microtiter plate reader analysis; assay type: functional, organism-based; settings: dose <= 256.0 µg/ml
[9] = biological target: T2, Deubiquitinase and deneddylase Dub1 (Chlamydia trachomatis serovar L2 (strain ATCC VR-902B / DSM 19102 /434/Bu)); experiment: Non-covalent inhibition of recombinant Chlamydia trachomatis DUB1 (130 to 401 residues) using Ub-Rh110Gly as fluorogenic substrate incubated for 10 to 360 mins by enzymatic analysis; settings: time 10-360 min
Escherichia coli = experiment: Antimicrobial activity against Escherichia coli K12 upto 256 microg/ml incubated for 20 hrs by resazurin staining based microtiter plate reader analysis; assay type: functional, organism-based; settings: dose <= 256.0 µg/ml

Sequence of Ubiquitin carboxyl-terminal hydrolase isozyme L1 (Homo sapiens) (P09936 whole entry, looked up): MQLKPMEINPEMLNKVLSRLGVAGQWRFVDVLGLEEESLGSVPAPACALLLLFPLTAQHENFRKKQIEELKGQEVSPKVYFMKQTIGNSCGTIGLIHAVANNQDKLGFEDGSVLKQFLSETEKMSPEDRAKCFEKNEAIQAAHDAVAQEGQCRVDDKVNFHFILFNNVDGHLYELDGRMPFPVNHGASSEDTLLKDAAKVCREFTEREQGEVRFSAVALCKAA

In the case of `N#Cc1nccc(C(=O)NCc2nn(C(=O)Cc3ccccc3)c3ccccc23)n1`, the IC50 [1] is reported as 0.97 µM, the inhibition [2] is reported as “Active; Partial Inhibition Observed” and the inhibition [3] is reported as under 25%. The inhibition [4] was under 25%, the inhibition [5] was under 25% and the IC50 [6] was 30 µM. The inhibition [7] was 100%, the IC50 (Chlamydia trachomatis) was 25.6 µg/mL (≈ 64.6 µM) and the Activity (HEp-2) was “Non-toxic”. The Activity (HEK293) was “Non-toxic”, the Activity [8] was “Toxic” and the Activity (Staphylococcus aureus) was “inactive”. The inhibition [9] was “Active” and the Activity (Escherichia coli) was “inactive”.
